The subject of series [1] is A549 Red-FLuc lung tumors. The experiment in a line: Antitumor assessment, experimental metastasis lung cancer model, bioluminescence imaging. To be noted: 18 6 mg/kg, lapatinib 10 mg/kg, twice a week; A549-Red-FLuc lung tumors in nude mice. The series is classed as in vivo. Here is the method:
All animal studies were conducted in accordance with NIH guidelines for care, and use of laboratory animals and protocols were approved by the Institutional Animal Care and Use Committee at the University of Louisiana Monroe. Bioware® Brite Cell Line A549 Red-FLuc cells that had been engineered to express firefly luciferase (Perkin Elmer) were injected into the tail vein (4.5 × 10^6 cells in 200 µl PBS per mouse) of 6-week-old Foxn1^nu-nude mice. For bioluminescence imaging, mice were anesthetized with 1-3% isoflurane and 150 mg/kg of D-luciferin (PerkinElmer) in phosphate-buffered saline (PBS) was given by intraperitoneal injection. 8 min after injection, bioluminescence was imaged with an IVIS Lumina III Series (PerkinElmer), and regions of interest (ROI) were drawn around the bioluminescent signals and quantified as photons/second (p/s). Mice with tumors were divided into three groups viz. control (vehicle), 18 treatment, and lapatinib treatment. After two weeks of the inoculation of tumor cells, mice from the respective groups were injected intravenously with 18 (6 mg/kg) or lapatinib (10 mg/kg) or vehicle twice a week for the next three weeks. To evaluate the effect of the treatments, tumors were imaged, and bioluminescence was measured once a week. […]

The test system of a further series is HER2 phosphorylation. The experiment in a line: Western blot of HER2 phosphorylation in lung tumor tissue. To be noted: tumors harvested day 35; 18 6 mg/kg, lapatinib 10 mg/kg. It counts as in vivo, mice. Here is the method:
A549 cells were treated with 2 µM 18 or 2 µM lapatinib (positive control). Cells without treatment were employed as a negative control. Cells were treated for 36 h, washed, and trypsinized. 35 μg of protein from each sample was loaded on Novex® 4-20% tris-glycine gels and transferred into nitrocellulose membranes. The membranes were blocked with 2% bovine serum albumin solution and incubated with primary antibodies overnight at 4 °C. Antibodies for the detection of total HER2 protein (t-HER2), phosphorylated HER2 protein (p-HER2), total AKT (t-AKT); (Cell Signaling Technology, phosphorylated AKT (P-Akt, S473); (Cell Signaling Technology) were used at 1:1000 dilution. Secondary antibodies with HRP conjugation was incubated for 1 h. After the addition of the substrate and enhancer solutions from a super signal enhanced chemiluminescence kit (Pierce, Rockford, IL) to the membrane, images were captured using ChemiDoc™ Touch Gel Imaging System (Bio-Rad), and band densities were quantified. A representative Western blot image was used for the final presentation. […]
All animal studies were conducted in accordance with NIH guidelines for care, and use of laboratory animals and protocols were approved by the Institutional Animal Care and Use Committee at the University of Louisiana Monroe. […] To evaluate the effect of the treatments, tumors were imaged, and bioluminescence was measured once a week. […]
(In general: A western blot detects proteins with antibodies after separation by electrophoresis.)

The subject of series [2] is lung, heart, kidney, liver tissue. The series is classed as in vivo, mice. To be noted: for Lung histology (H&E) compared to vehicle: day 35, 18 6 mg/kg, lapatinib 10 mg/kg. The protocol:
For histopathological analysis, lungs, kidney, liver, heart, and pancreas were excised from the mice and fixed with 10% normal formalin solution. These fixed samples were embedded in paraffin, and slides were prepared by cutting them into 5 μm slices and mounting on the glass. Prepared slides were stained using hematoxylin and eosin (H&E) staining. Slides were visualized under a microscope (Nikon labophot 2. Type120) and pictures were taken at different magnifications for analysis. Representative pictures from histopathology analysis were used for presentation.

The subject of the next series is NCI-H1975. To be noted: read-out: IC50, antiproliferative activity in NCI-H1975; NCI-H1975 EGFR mutated NSCLC cell line. The protocol:
(§1) In a 96-well plate, 1 × 10^4 cells/well were seeded and incubated overnight at 37 °C and 5% CO2. The stock solution of the peptidemimetic was prepared by dissolving them in DMSO. Stock solutions of the compound and controls were diluted using the serum-free medium to prepare solutions of different concentrations of compounds with DMSO concentration not exceeding 1% (v/v) in the final solution in each well of a 96-well plate. […] A dose-response curve was generated using percentage cell viability vs. log concentration of compounds, and IC50 values were obtained using Prism® (GraphPad Software). Experiments were repeated three times to obtain standard deviation values.
(§2) In vivo Studies of a Peptidomimetic that Targets EGFR
(§3) Leeza Shrestha1, Sitanshu Singh1, Pravin Parajuli1, Achyut Dahal1, George Mattheolabakis1,
(§4) Sharon Meyer1, Joydeep Bhattacharjee2, Seetharama Jois1*
(§5) 1School of Basic Pharmaceutical and Toxicological Sciences, College of Pharmacy, University
(§6) of Louisiana Monroe, Monroe, LA 71201.
(§7) 2Biology Program, School of Sciences, University of Louisiana Monroe, Monroe, LA 71029.

Another series deals with SKOV-3. To be noted: read-out: IC50, antiproliferative activity in SKOV-3; SKOV-3 ovarian cancer, HER2+. The protocol: as §1, §2, §3, §4, §5, §6, §7
In series [3] the test system is phosphorylated HER2 protein (p-HER2). In words: Western blot of HER2 phosphorylation in A549 cells. To be noted: 2 µM, 36 h, Western blot densitometry. The series is classed as cell-based, human. Here is the method: (§8) A549 cells were treated with 2 µM 18 or 2 µM lapatinib (positive control). Cells without treatment were employed as a negative control. Cells were treated for 36 h, washed, and trypsinized. 35 μg of protein from each sample was loaded on Novex® 4-20% tris-glycine gels and transferred into nitrocellulose membranes. The membranes were blocked with 2% bovine serum albumin solution and incubated with primary antibodies overnight at 4 °C. Antibodies for the detection of total HER2 protein (t-HER2), phosphorylated HER2 protein (p-HER2), total AKT (t-AKT); (Cell Signaling Technology, phosphorylated AKT (P-Akt, S473); (Cell Signaling Technology) were used at 1:1000 dilution. Secondary antibodies with HRP conjugation was incubated for 1 h. After the addition of the substrate and enhancer solutions from a super signal enhanced chemiluminescence kit (Pierce, Rockford, IL) to the membrane, images were captured using ChemiDoc™ Touch Gel Imaging System (Bio-Rad), and band densities were quantified. A representative Western blot image was used for the final presentation. Data are from triplicates and are presented as the mean ± standard error of the mean (SEM). To evaluate the significance, statistical analysis was performed by a one-tail T-test using Prism Graph Pad (GraphPad Software, San Diego). P< 0.05 was considered statistically significant, [32].

In series [4] the test system is phosphorylated AKT (P-Akt, S473). In words: Western blot of Akt phosphorylation in A549 cells. It counts as cell-based, human. To be noted: 2 µM, 36 h, Western blot densitometry. The protocol: as §8
The next series addresses T1, EGFR:HER2 dimerization (Homo sapiens, UniProt P04626).
T1 construct: from tissue; host or cells: Lung tumour tissue of nude mice injected IV with A549-Red-FLuc human NSCLC cells
In words: Proximity ligation assay on lung tumor tissue, EGFR:HER2. The series is classed as in vivo, mice. To be noted: 6 mg/kg, vs vehicle control. The protocol:
(§9) The lung tissue samples with tumors were fixed on the slides. […] Antigen retrieval on the tissue section of slides was done in a steaming sodium citrate buffer (10 mM, 0.05% Tween 20, pH 6.0) for 15 min. Tissue slides were incubated with primary antibodies overnight at 4 °C and washed, and secondary antibodies PLA+ and PLA- were added. After incubation and washing, PLA detection reagents were added, [36]. The mounting medium was then added, and the slides were coverslipped. Slides were viewed using an Olympus BX63 fluorescence microscope fitted with deconvolution optics using DAPI, and Texas Red filters. Images were obtained at 40×.

The target in another series is T2, HER2:HER3 dimerization (Homo sapiens, UniProt P04626).
T2 construct: from tissue; host or cells: Lung tumour tissue of nude mice injected IV with A549-Red-FLuc human NSCLC cells
T2 sequence (P04626 23-1255): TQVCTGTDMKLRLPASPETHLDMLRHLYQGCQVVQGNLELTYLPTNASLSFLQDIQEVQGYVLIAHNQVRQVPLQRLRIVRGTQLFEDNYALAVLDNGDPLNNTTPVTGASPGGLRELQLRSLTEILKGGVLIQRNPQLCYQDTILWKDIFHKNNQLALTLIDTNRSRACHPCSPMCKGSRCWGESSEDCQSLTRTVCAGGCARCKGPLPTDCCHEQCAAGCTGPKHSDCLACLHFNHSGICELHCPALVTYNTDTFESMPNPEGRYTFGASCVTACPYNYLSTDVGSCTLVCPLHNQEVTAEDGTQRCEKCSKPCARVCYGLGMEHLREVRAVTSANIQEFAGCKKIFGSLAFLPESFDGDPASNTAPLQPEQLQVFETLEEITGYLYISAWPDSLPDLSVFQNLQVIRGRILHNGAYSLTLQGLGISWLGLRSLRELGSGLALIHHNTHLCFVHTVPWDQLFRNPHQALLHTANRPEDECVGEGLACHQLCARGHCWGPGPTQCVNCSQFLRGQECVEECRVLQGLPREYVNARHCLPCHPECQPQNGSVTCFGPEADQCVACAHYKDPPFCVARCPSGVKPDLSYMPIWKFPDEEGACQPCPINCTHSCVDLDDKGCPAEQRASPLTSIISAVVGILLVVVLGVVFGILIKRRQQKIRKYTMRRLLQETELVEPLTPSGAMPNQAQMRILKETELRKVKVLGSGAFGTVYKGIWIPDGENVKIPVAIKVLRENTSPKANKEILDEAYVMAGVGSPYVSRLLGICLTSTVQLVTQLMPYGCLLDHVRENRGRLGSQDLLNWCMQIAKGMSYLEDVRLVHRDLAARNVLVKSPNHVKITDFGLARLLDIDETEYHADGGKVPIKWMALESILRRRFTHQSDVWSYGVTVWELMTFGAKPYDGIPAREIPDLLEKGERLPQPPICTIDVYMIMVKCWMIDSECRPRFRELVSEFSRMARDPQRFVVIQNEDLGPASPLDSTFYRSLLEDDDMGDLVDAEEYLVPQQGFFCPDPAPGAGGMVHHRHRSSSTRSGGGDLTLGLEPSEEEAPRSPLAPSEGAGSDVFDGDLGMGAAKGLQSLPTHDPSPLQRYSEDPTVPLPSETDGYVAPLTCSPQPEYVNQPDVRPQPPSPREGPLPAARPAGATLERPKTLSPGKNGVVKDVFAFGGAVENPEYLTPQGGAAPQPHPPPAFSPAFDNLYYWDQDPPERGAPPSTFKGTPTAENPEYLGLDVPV
The experiment in a line: Proximity ligation assay on lung tumor tissue, HER2:HER3. It counts as in vivo, mice. To be noted: 6 mg/kg, vs vehicle control. The protocol: as §9

The conditions of series [5]: mouse, in vivo, iv.
Procedure: (§10) Female Foxn1-nude, 6-7 week-old mice (Envigo) were used in all studies.
(§11) After administration of the compound, mice were sacrificed at certain time intervals (0, 0.25, 0.75, 2, 4, 6, 12 and 24 h), and blood samples were taken to study the amount of compound remaining in blood circulation. The samples were then centrifuged at 1000 rpm for 5 min. The separated supernatant serum samples were precipitated by acetonitrile to extract the analytes and passed through the Sep-Pak (Waters) column. Chromatographic separation was performed on an HPLC. Mass spectrometry was used to identify the correct molecular ion of the intact compound.
(§12) Blood samples were collected at different time intervals, and analysis of the sample was accomplished using HPLC and mass spectrometry. […] For pharmacokinetic parameter analysis, PKSolver software was used [50]. […] Based on the AIC, SC, and curve fitting by the PKSolver software, intravenous bolus administration/two compartmental model was selected for deriving our reported pharmacokinetic parameters.
For a further series, the system named is A549 cells. To be noted: read-out: IC50, antiproliferative activity in A549; A549 NSCLC, HER2+; 72 h, serum-free medium, CellTiter-Glo. (In general: Cellular ATP, detected with luciferase, serves as a proxy for viable cell number.)
The conditions of series [6]: 25 to 80 °C, 18 μM.
Procedure: Circular dichroism experiments were done using a Jasco J-815 CD Spectrometer (Jasco, Japan) at temperatures from 20 to 80 °C with a gradual 5 °C increase before reading. […] The spectra for samples were recorded from 185-350 nm wavelengths with a total of four scans for each temperature, and wavelength vs. ellipticity was plotted for an average of four scans.
For series [7] the following is noted: mouse, in vivo, iv. This is another data set of the same source.
Procedure: as §10, §11, §12
Series [8] has as its target human serum albumin (HSA) (Homo sapiens, UniProt P02768).
Procedure: Surface plasmon resonance analysis was performed in 0.01 M phosphate-buffered saline (NaCl 0.138 M; KCl -0.0027 M); Tween® 20 -0.05%, pH 7.4 using a Reichert Life Sciences System. Immobilization of HSA to the hydrophilic carboxymethylated dextran matrix of the CM5 sensor chip was carried out by the standard primary amine coupling method. […] All binding experiments were performed at a flow rate of 25 µL/min. After each interaction analysis, the sensor chip was regenerated with water. […] The Kd values were obtained using the 1:1 kinetic evaluation fitting tool of Tracedrawer software.
In another series the test system is SKBR-3. More on the design: method as in ref 20 (Kanthala et al. Oncotarget 8(43):74244-74262). To be noted: SKBR-3 breast cancer, HER2+; ref 20 (Kanthala et al. Oncotarget 8(43):74244-74262); read-out: IC50, antiproliferative activity in SKBR-3; cited from earlier work.
Another series relates to MCF-7. To be noted: MCF-7 breast cancer, HER2-; read-out: IC50, antiproliferative activity in MCF-7; cited from earlier work.
Another series deals with MCF-10A. More on the design: method as in ref 20 (a number printed in a supplementary file, which may have a reference list of its own: not looked up in the article's list). To be noted: MCF-10A non-cancerous breast cell line, basal HER2; read-out: IC50, antiproliferative activity in MCF-10A; cited from earlier work.
The test system of the next series is HER2 expression. More on the design: method as in ref 20 (a number printed in a supplementary file, which may have a reference list of its own: not looked up in the article's list). To be noted: HER2-positive breast cancer xenograft, 4 mg/kg IV; cited from earlier work.
The next series can be described thus: physchem. To be noted: buffer, pH 1.
The nature of series [9]: in vitro. To be noted: simulated gi fluid.
Procedure: (§13) Simulated intestinal fluid TS and simulated gastric fluid were purchased from Ricca Chemical (Arlington, TX). Pepsin (0.32 g/100 ml) was added to the simulated gastric fluid. To determine the effect of simulated gastric and intestinal fluids on 18, it (10µM) was incubated in gastric fluid with pepsin for 6 h and intestinal fluid for 12 h at 37 °C. Samples were taken at particular time intervals and analyzed using the HPLC method [33]. Methods used were similar to the methods explained above for HPLC analysis.
A short description of series [10]: in vitro. To be noted: simulated gi fluid. This is another data set of the same source.
Procedure: as §13

Each structure is given as a SMILES string. Read-outs that look alike come from different tables or passages of the source. Numbered stars: 1 amine (or outer) side, 2 acyl side, 3 side chain; on linkers, the order of the positions; unused ones are H or OH. Square brackets hold non-standard residues; d marks the D form. Peptide text beside a SMILES is read from it. βAla(3R-(1-naphthyl)) = O=C(C[C@@H](N[*:1])c1cccc2ccccc12)[*:2]

Usually IC50 stands for the midpoint of a concentration-inhibition curve. As a reminder, the AUC(0-inf) is the area under the concentration-time curve extrapolated to infinity. As a reminder, the Vd is a proportionality between amount in the body and measured concentration, not a real space. A lower Vd goes with little distribution into tissue. In general, clearance refers to the volume of plasma or blood freed of the substance per unit of time. High values mean a high capacity for elimination, low ones a low capacity for elimination. As usually defined, the half-life is how long it takes for the measured level to halve. Broadly, the share remaining is what is left of the initial amount, in per cent.

human serum albumin (HSA), sequence (P02768 25-609): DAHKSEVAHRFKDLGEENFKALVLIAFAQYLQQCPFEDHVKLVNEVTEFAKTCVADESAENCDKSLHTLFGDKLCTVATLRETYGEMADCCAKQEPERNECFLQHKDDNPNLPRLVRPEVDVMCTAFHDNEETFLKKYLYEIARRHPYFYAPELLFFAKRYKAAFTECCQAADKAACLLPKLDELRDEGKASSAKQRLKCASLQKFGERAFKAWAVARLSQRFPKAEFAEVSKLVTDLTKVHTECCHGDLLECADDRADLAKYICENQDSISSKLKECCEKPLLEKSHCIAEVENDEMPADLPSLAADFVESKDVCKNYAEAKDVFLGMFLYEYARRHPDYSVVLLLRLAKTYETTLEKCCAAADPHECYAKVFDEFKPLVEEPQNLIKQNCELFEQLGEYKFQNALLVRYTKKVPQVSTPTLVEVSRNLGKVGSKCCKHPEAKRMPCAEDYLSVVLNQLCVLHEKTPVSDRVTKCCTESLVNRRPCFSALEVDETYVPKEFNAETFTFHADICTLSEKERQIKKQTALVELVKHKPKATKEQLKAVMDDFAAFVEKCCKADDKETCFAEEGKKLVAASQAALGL
T1 sequence (P04626 23-1255): as the sequence (P04626 23-1255) above
Source text for physchem: Shimadzu FCV-20AH2 manual injector was used with Ultra C18, 5 µm (250 × 4.6 mm) column, Shimadzu SPD-20A UV/Vis detector, and Shimadzu LC-20AP pump. 40% acetonitrile (0.1% TFA) with 60% water (0.1% TFA) was used as mobile phase. Relative Peak area was plotted as % remaining compound with respect to time compared with zero time point, and data are from triplicate experiments. For pH stability, a buffer with pH 1 was obtained by adding 0.1 M HCl, and a buffer with pH 7.5 was obtained by adding 0.1 M PBS (Sigma).

Turning to `CS(=O)(=O)CCNCc1ccc(-c2ccc3ncnc(Nc4ccc(OCc5cccc(F)c5)c(Cl)c4)c3c2)o1` [lapatinib, reference compound], the “Rate of tumor growth indicated by total flux compared with vehicle” value in [1] is reported as “decreased”. Further, in the series with HER2 phosphorylation, the “HER2 phosphorylation in lung tumor tissue compared to control” value was “inhibited HER2 phosphorylation to a significant extent”. Moreover, the “Lung histology (H&E) compared to vehicle” value in series [2] was “remarkably fewer tumors and less inflammatory infiltration”.

Turning to `N=C(N)NCCC[C@@H]1NC(=O)[C@H]2CCCN2C(=O)[C@@H]2CCCN2C(=O)[C@H](CCCNC(=N)N)NC(=O)C[C@H](c2cccc3ccccc23)NC(=O)[C@H](Cc2ccccc2)NC(=O)[C@H](CC(=O)O)NC(=O)[C@H](CC(=O)O)NC(=O)[C@H](Cc2ccccc2)NC(=O)C[C@H](c2cccc3ccccc23)NC1=O` [Compound 18] (cyclo(DDF[βAla(3R-(1-naphthyl))]RP[dP]R[βAla(3R-(1-naphthyl))]F)), the IC50 was 4850 ± 217 nM in the series with NCI-H1975; 853 ± 102 nM in the series on SKOV-3; 868 ± 32 nM with A549 cells; 194 ± 46 nM in the series on SKBR-3; greater than 50000 nM in the series with MCF-7; 40000 nM with MCF-10A. Further, in series [3], the “Inhibition of phosphorylation of HER2 compared to control” value came out at 41.6%. For the same compound, the “Inhibition of phosphorylation of Akt compared to control” value in series [4] stood at 24.7%. Besides, the “Rate of tumor growth indicated by total flux compared with vehicle” value in series [1] is on record as “decreased”. For the same compound, in the series on HER2 phosphorylation, the “HER2 phosphorylation in lung tumor tissue compared to control” value was “inhibited HER2 phosphorylation to a significant extent”. The “EGFR:HER2 dimerization in lung tumor tissue (PLA red fluorescence)” value on EGFR:HER2 dimerization is “reduction in red fluorescence”. In addition, on HER2:HER3 dimerization, the “HER2:HER3 dimerization in lung tumor tissue (PLA red fluorescence)” value was “reduction in red fluorescence”. In addition, in series [2] (6 mg/kg, three weeks of treatment), the “Toxicity to organs (heart, liver, lung, kidney), H&E” value was “no significant tissue damage or toxic effects”. The “Lung histology (H&E) compared to vehicle” value in series [2] is “remarkably fewer tumors and less inflammatory infiltration”. Moreover, the AUC(0-inf) in series [5] is roughly 459 µg·h/mL. The same compound had a Vd in [5] of roughly 0.011 L. The same compound had a clearance in series [5] of roughly 0.00433 mL/min. Moreover, the half-life in [5] (4 mg/kg, Terminal half-life) was roughly 42 h; in series [5] (6 mg/kg, Terminal half-life) it was roughly 46 h; in series [5] (Distribution half-life) it was roughly 0.8 h; in series [5] (Terminal half-life in vivo), greater than 40 h. Further, the “Change of circular dichroism spectra (backbone conformation) with temperature” value in series [6] was “did not show any significant change”. In addition, where the note is “pH 1”, the “Time after which concentration decreases significantly at pH 1” value is greater than 4 days. The “Stability at pH 7.5” value (pH 7.5) is given as “stable for 30 days”. The compound also displayed a Vd peripheral in series [7] of roughly 17 mL. The “Compound in free form” value in series [8] was roughly 22%. Besides, in the series on HER2 expression, the “Change in HER2 expression in xenograft tumor tissue” value is reported as “no”. Besides, the amount remaining at 720 h in “physchem” is greater than 40%. The compound also returned a share remaining at 6 h, 10 µM in the series “in vitro [9]” greater than 80%. In “in vitro [10]”, this compound gave an amount remaining at 12 h, 10 µM greater than 40%.
